What was measured:
Type in all cases: functional
Pseudomonas aeruginosa = assay: Antimicrobial activity against Pseudomonas aeruginosa clinical isolate after 18 to 22 hrs by broth microdilution method
Haemophilus influenzae [1] = assay: Antimicrobial activity against beta-lactamase-producing Haemophilus influenzae clinical isolate after 18 to 22 hrs by broth microdilution method
Haemophilus influenzae [2] = assay: Antimicrobial activity against beta-lactamase-negative Haemophilus influenzae clinical isolate after 18 to 22 hrs by broth microdilution method
[3] = tested on: Haemophilus parainfluenzae; assay: Antimicrobial activity against Haemophilus parainfluenzae clinical isolate after 18 to 22 hrs by broth microdilution method
Moraxella catarrhalis = assay: Antimicrobial activity against Moraxella catarrhalis clinical isolate after 18 to 22 hrs by broth microdilution method
[4] = tested on: Staphylococcus epidermidis; assay: Antimicrobial activity against methicillin-resistant Staphylococcus epidermidis clinical isolate after 18 to 22 hrs by broth microdilution method
[5] = tested on: Staphylococcus epidermidis; assay: Antimicrobial activity against methicillin-susceptible Staphylococcus epidermidis clinical isolate after 18 to 22 hrs by broth microdilution method
Enterococcus faecalis = assay: Antimicrobial activity against Enterococcus faecalis clinical isolate after 18 to 22 hrs by broth microdilution method
Enterococcus faecium [6] = assay: Antimicrobial activity against Enterococcus faecium clinical isolate after 18 to 22 hrs by broth microdilution method
Enterococcus faecium [7] = assay: Antimicrobial activity against vancomycin-resistant Enterococcus faecium clinical isolate after 18 to 22 hrs by broth microdilution method
Enterococcus avium = assay: Antimicrobial activity against Enterococcus avium clinical isolate after 18 to 22 hrs by broth microdilution method
Streptococcus pneumoniae [8] = assay: Antimicrobial activity against penicillin-intermediate Streptococcus pneumoniae clinical isolate after 18 to 22 hrs by broth microdilution method
Streptococcus pneumoniae [9] = assay: Antimicrobial activity against penicillin-resistant Streptococcus pneumoniae clinical isolate after 18 to 22 hrs by broth microdilution method
Streptococcus pyogenes = assay: Antimicrobial activity against Streptococcus pyogenes clinical isolate after 18 to 22 hrs by broth microdilution method
[10] = tested on: Enterococcus casseliflavus; assay: Antimicrobial activity against Enterococcus casseliflavus clinical isolate after 18 to 22 hrs by broth microdilution method
Enterococcus durans = assay: Antimicrobial activity against Enterococcus durans clinical isolate after 18 to 22 hrs by broth microdilution method
Enterococcus gallinarum = assay: Antimicrobial activity against Enterococcus gallinarum clinical isolate after 18 to 22 hrs by broth microdilution method
Streptococcus agalactiae = assay: Antimicrobial activity against Streptococcus agalactiae clinical isolate after 18 to 22 hrs by broth microdilution method
Citrobacter koseri = assay: Antimicrobial activity against Citrobacter koseri clinical isolate after 18 to 22 hrs by broth microdilution method
Enterobacter cloacae [11] = assay: Antimicrobial activity against Enterobacter cloacae clinical isolate after 18 to 22 hrs by broth microdilution method
Escherichia coli [12] = assay: Antimicrobial activity against class A extended spectrum beta-lactamase- and class D OXA- producing Escherichia coli clinical isolate after 18 to 22 hrs by broth microdilution method
Escherichia coli [13] = assay: Antimicrobial activity against class A extended spectrum beta-lactamase- producing Escherichia coli clinical isolate after 18 to 22 hrs by broth microdilution method
Escherichia coli [14] = assay: Antimicrobial activity against AmpC beta-lactamase-producing Escherichia coli clinical isolate after 18 to 22 hrs by broth microdilution method
Enterobacter cloacae [15] = assay: Antimicrobial activity against AmpC beta-lactamase-producing Enterobacter cloacae clinical isolate after 18 to 22 hrs by broth microdilution method
Klebsiella aerogenes = assay: Antimicrobial activity against Enterobacter aerogenes clinical isolate after 18 to 22 hrs by broth microdilution method
Citrobacter freundii = assay: Antimicrobial activity against Citrobacter freundii clinical isolate after 18 to 22 hrs by broth microdilution method
Klebsiella pneumoniae [16] = assay: Antimicrobial activity against class A extended spectrum beta-lactamase- producing Klebsiella pneumoniae clinical isolate after 18 to 22 hrs by broth microdilution method
Klebsiella pneumoniae [17] = assay: Antimicrobial activity against class A extended spectrum beta-lactamase- and class D OXA- producing Klebsiella pneumoniae clinical isolate after 18 to 22 hrs by broth microdilution method
Klebsiella pneumoniae [18] = assay: Antimicrobial activity against AmpC- producing Klebsiella pneumoniae clinical isolate after 18 to 22 hrs by broth microdilution method
Klebsiella oxytoca = assay: Antimicrobial activity against Klebsiella oxytoca clinical isolate after 18 to 22 hrs by broth microdilution method
Serratia marcescens = assay: Antimicrobial activity against Serratia marcescens clinical isolate after 18 to 22 hrs by broth microdilution method
Morganella morganii = assay: Antimicrobial activity against Morganella morganii clinical isolate after 18 to 22 hrs by broth microdilution method
Proteus vulgaris = assay: Antimicrobial activity against Proteus vulgaris clinical isolate after 18 to 22 hrs by broth microdilution method
Providencia rettgeri = assay: Antimicrobial activity against Providencia rettgeri clinical isolate after 18 to 22 hrs by broth microdilution method
Providencia stuartii = assay: Antimicrobial activity against Providencia stuartii clinical isolate after 18 to 22 hrs by broth microdilution method
[19] = tested on: Acinetobacter calcoaceticus; assay: Antimicrobial activity against Acinetobacter calcoaceticus clinical isolate after 18 to 22 hrs by broth microdilution method
Acinetobacter baumannii = assay: Antimicrobial activity against Acinetobacter baumannii clinical isolate after 18 to 22 hrs by broth microdilution method
[20] = tested on: Acinetobacter haemolyticus; assay: Antimicrobial activity against Acinetobacter haemolyticus clinical isolate after 18 to 22 hrs by broth microdilution method
Acinetobacter johnsonii = assay: Antimicrobial activity against Acinetobacter johnsonii clinical isolate after 18 to 22 hrs by broth microdilution method
Acinetobacter lwoffii = assay: Antimicrobial activity against Acinetobacter lwoffii clinical isolate after 18 to 22 hrs by broth microdilution method

C[C@H]1COc2c(N3CCN(C)CC3)c(F)cc3c(=O)c(C(=O)O)cn1c23.C[C@H]1COc2c(N3CCN(C)CC3)c(F)cc3c(=O)c(C(=O)O)cn1c23.O [LEVOFLOXACIN]
MIC50 (Pseudomonas aeruginosa): 1 µg/mL | MIC90 (Pseudomonas aeruginosa): > 16 µg/mL | MIC (Haemophilus influenzae [1]): ≤ 0.015 µg/mL | MIC50 (Haemophilus influenzae [1]): ≤ 0.015 µg/mL | MIC90 (Haemophilus influenzae [1]): ≤ 0.015 µg/mL | MIC (Haemophilus influenzae [2]): ≤ 0.015 µg/mL | MIC50 (Haemophilus influenzae [2]): ≤ 0.015 µg/mL | MIC90 (Haemophilus influenzae [2]): ≤ 0.015 µg/mL | MIC [3]: ≤ 0.015 µg/mL | MIC50 [3]: ≤ 0.015 µg/mL | MIC90 [3]: 0.06 µg/mL | MIC50 (Moraxella catarrhalis): 0.03 µg/mL | MIC90 (Moraxella catarrhalis): 0.06 µg/mL | MIC50 [4]: 2 µg/mL | MIC90 [4]: > 16 µg/mL | MIC50 [5]: 0.12 µg/mL | MIC90 [5]: 0.25 µg/mL | MIC50 (Enterococcus faecalis): 1 µg/mL | MIC90 (Enterococcus faecalis): > 16 µg/mL | MIC50 (Enterococcus faecium [6]): 4 µg/mL | MIC90 (Enterococcus faecium [6]): > 16 µg/mL | MIC (Enterococcus faecium [7]): > 16 µg/mL | MIC50 (Enterococcus faecium [7]): > 16 µg/mL | MIC50 (Enterococcus avium): 2 µg/mL | MIC90 (Enterococcus avium): 2 µg/mL | MIC50 (Streptococcus pneumoniae [8]): 0.5 µg/mL | MIC90 (Streptococcus pneumoniae [8]): 1 µg/mL | MIC50 (Streptococcus pneumoniae [9]): 1 µg/mL | MIC90 (Streptococcus pneumoniae [9]): 1 µg/mL | MIC50 (Streptococcus pyogenes): 0.5 µg/mL | MIC90 (Streptococcus pyogenes): 0.5 µg/mL | MIC50 [10]: 1 µg/mL | MIC90 [10]: 8 µg/mL | MIC50 (Enterococcus durans): 1 µg/mL | MIC90 (Enterococcus durans): 8 µg/mL | MIC50 (Enterococcus gallinarum): 1 µg/mL | MIC90 (Enterococcus gallinarum): 8 µg/mL | MIC50 (Streptococcus agalactiae): 1 µg/mL | MIC90 (Streptococcus agalactiae): 1 µg/mL | MIC50 (Citrobacter koseri): 0.03 µg/mL | MIC90 (Citrobacter koseri): 0.06 µg/mL | MIC50 (Enterobacter cloacae [11]): 0.06 µg/mL | MIC90 (Enterobacter cloacae [11]): > 16 µg/mL | MIC50 (Escherichia coli [12]): 16 µg/mL | MIC90 (Escherichia coli [12]): > 16 µg/mL | MIC50 (Escherichia coli [13]): 8 µg/mL | MIC90 (Escherichia coli [13]): > 16 µg/mL | MIC50 (Escherichia coli [14]): 16 µg/mL | MIC90 (Escherichia coli [14]): > 16 µg/mL | MIC50 (Enterobacter cloacae [15]): 0.12 µg/mL | MIC90 (Enterobacter cloacae [15]): 8 µg/mL | MIC50 (Klebsiella aerogenes): 0.06 µg/mL | MIC90 (Klebsiella aerogenes): 0.5 µg/mL | MIC50 (Citrobacter freundii): 0.12 µg/mL | MIC90 (Citrobacter freundii): 2 µg/mL | MIC50 (Klebsiella pneumoniae [16]): 0.5 µg/mL | MIC90 (Klebsiella pneumoniae [16]): 8 µg/mL | MIC50 (Klebsiella pneumoniae [17]): 1 µg/mL | MIC90 (Klebsiella pneumoniae [17]): > 16 µg/mL | MIC50 (Klebsiella pneumoniae [18]): 2 µg/mL | MIC90 (Klebsiella pneumoniae [18]): > 16 µg/mL | MIC50 (Klebsiella oxytoca): 0.03 µg/mL | MIC90 (Klebsiella oxytoca): 0.25 µg/mL | MIC50 (Serratia marcescens): 0.12 µg/mL | MIC90 (Serratia marcescens): 4 µg/mL | MIC50 (Morganella morganii): 0.03 µg/mL | MIC90 (Morganella morganii): > 16 µg/mL | MIC (Proteus vulgaris): 0.03 µg/mL | MIC50 (Proteus vulgaris): 0.03 µg/mL | MIC90 (Proteus vulgaris): 0.12 µg/mL | MIC50 (Providencia rettgeri): 1 µg/mL | MIC90 (Providencia rettgeri): 16 µg/mL | MIC50 (Providencia stuartii): 1 µg/mL | MIC90 (Providencia stuartii): 16 µg/mL | MIC50 [19]: 8 µg/mL | MIC90 [19]: 16 µg/mL | MIC50 (Acinetobacter baumannii): 8 µg/mL | MIC90 (Acinetobacter baumannii): 16 µg/mL | MIC50 [20]: 0.12 µg/mL | MIC90 [20]: 2 µg/mL | MIC50 (Acinetobacter johnsonii): 0.12 µg/mL | MIC90 (Acinetobacter johnsonii): 2 µg/mL | MIC50 (Acinetobacter lwoffii): 0.12 µg/mL | MIC90 (Acinetobacter lwoffii): 2 µg/mL
